# Reference: ChEMBL document CHEMBL1201862, “PubChem BioAssay data set” (2004)
# Calls of active or inactive are those of the source.
# Key:
# MEF = assay: SAR analysis of small molecule cytotoxicity of MazEF TA System activators in embryonic fibroblast (MEF) cells. [Related pubchem assays (depositor defined):AID504720, AID504743]; format: functional; details: Mus musculus
# [1] = target: T1, Neuropeptide Y receptor type 2 (Homo sapiens, UniProt P49146); assay: Fluorescence-based counterscreen for agonists of NPY-Y1: cell-based high-throughput dose response assay for agonists of NPY-Y2.; format: functional
# T1 sequence (P49146 whole entry): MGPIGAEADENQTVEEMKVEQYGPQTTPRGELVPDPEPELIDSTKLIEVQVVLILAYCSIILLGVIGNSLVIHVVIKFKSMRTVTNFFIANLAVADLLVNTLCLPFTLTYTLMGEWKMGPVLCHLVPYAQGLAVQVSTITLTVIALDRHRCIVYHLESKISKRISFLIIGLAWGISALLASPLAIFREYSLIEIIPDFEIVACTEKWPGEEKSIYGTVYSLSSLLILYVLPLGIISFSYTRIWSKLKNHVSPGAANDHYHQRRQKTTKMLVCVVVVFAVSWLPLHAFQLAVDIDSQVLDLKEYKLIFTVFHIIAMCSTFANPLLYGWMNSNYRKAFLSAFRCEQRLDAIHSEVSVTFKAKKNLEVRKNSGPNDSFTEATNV
# [2] = target: T2, Endoribonuclease toxin MazF (Escherichia coli K-12, UniProt P0AE70); assay: MazEF toxin-antitoxin RNase activation – biochemical, fluorescence, single-stranded RNA substrate, SAR follow-up (AID 588603); format: functional
# T2 sequence (P0AE70 whole entry): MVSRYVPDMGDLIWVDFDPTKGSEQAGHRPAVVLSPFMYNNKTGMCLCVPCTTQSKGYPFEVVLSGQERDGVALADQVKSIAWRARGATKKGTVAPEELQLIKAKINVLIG
# [3] = target: T2, Endoribonuclease toxin MazF; assay: activation of MazEF endoribonuclease cleavage – biochemical, fluorescence, single-stranded RNA substrate, uHTS hits, dose response (AID 588481); format: functional
# [4] = target: T2, Endoribonuclease toxin MazF; assay: substrate-only fluorescence increase artefacts – biochemical, single-stranded RNase substrate, counter-screen for MazEF activator project, dose response (AID 588502); format: functional
# [5] = target: T3, Neuropeptide Y receptor type 1 (Homo sapiens, UniProt P25929); assay: Fluorescence-based dose response cell-based high-throughput screening assay for agonists of NPY-Y1. [Related pubchem assays: 1697 (Screening assay (NPY-Y1 agonists).), 1359 (Screening assay (NPY-Y2 potentiators or agonists).), 1304 (Screening assay (NPY-Y1 potentiators or agonists).), 1704 (Screening assay (CNGC inhibitors).), 1791 (Summary AID.)]; format: functional
# T3 sequence (P25929 whole entry): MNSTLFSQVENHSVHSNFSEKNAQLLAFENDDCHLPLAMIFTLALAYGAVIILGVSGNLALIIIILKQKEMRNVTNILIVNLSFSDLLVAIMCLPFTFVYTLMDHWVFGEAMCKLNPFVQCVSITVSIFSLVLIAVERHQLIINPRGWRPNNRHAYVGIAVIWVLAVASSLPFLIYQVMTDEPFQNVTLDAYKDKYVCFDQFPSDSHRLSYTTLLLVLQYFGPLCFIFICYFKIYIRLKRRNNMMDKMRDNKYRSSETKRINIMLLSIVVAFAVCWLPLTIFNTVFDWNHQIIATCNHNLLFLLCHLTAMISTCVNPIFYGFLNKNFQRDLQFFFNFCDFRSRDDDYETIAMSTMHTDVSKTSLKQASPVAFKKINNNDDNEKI
# HEK293 = assay: Fluorescence-based counterscreen for potentiators or agonists of NPY-Y1: cell-based high-throughput dose response assay for inhibitors of cyclic nucleotide gated ion channel (CNGC) activity. In this assay, the parental HEK293 cell line transfected with a cyclic-nucleotide gated ion channel (CNGC)-based cAMP sensor is used to measure inhibition of isoproterenol-induced CNGC …; format: functional; details: Homo sapiens
# [6] = target: T2, Endoribonuclease toxin MazF; assay: SAR analysis of small molecule activators of the MazEF TA System via a fluorescence-based single-stranded RNase assay counterscreen. [Related pubchem assays (depositor defined):AID504720, AID504743]; format: functional
# DNA topoisomerase = DNA topoisomerase (Yersinia pestis, UniProt A0A2S9PM60); assay: Yersinia topoisomerase I cleavage product accumulation – biochemical, cherry-pick, dose response (AID 588525)
# [7] = target: T4, Rac GTPase-activating protein 1 (Homo sapiens, UniProt Q9H0H5); assay: blockers of MgcRacGAP-driven Rac1 GTP hydrolysis – biochemical, ADP Hunter fluorescence, primary and confirmatory, confirmation (AID 624330); format: functional
# T4 sequence (Q9H0H5 whole entry): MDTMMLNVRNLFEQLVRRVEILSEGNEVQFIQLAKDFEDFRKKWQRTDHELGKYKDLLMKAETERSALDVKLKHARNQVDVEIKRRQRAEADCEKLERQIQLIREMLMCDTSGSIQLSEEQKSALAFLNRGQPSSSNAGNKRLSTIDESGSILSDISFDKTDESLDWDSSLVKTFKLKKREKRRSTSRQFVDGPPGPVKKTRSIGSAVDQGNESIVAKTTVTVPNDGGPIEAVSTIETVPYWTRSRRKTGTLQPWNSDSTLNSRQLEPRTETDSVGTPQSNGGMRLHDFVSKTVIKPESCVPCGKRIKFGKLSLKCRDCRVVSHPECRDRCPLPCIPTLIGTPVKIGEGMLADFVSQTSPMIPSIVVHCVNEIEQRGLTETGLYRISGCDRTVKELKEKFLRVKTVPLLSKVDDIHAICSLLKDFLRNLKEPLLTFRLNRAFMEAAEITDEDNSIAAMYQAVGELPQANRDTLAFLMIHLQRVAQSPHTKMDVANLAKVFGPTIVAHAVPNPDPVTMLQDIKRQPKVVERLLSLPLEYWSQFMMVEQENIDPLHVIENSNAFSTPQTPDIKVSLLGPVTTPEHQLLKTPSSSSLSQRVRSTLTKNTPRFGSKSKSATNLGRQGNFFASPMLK
# Nonstructural protein 1 = Nonstructural protein 1 (Influenza A virus, UniProt Q194T2); format: functional, Influenza A virus (A/California/07/2009(H1N1))
# [8] = target: T5, Histone-lysine N-methyltransferase NSD2 (Homo sapiens, UniProt O96028); format: biochemical
# T5 sequence (O96028 whole entry): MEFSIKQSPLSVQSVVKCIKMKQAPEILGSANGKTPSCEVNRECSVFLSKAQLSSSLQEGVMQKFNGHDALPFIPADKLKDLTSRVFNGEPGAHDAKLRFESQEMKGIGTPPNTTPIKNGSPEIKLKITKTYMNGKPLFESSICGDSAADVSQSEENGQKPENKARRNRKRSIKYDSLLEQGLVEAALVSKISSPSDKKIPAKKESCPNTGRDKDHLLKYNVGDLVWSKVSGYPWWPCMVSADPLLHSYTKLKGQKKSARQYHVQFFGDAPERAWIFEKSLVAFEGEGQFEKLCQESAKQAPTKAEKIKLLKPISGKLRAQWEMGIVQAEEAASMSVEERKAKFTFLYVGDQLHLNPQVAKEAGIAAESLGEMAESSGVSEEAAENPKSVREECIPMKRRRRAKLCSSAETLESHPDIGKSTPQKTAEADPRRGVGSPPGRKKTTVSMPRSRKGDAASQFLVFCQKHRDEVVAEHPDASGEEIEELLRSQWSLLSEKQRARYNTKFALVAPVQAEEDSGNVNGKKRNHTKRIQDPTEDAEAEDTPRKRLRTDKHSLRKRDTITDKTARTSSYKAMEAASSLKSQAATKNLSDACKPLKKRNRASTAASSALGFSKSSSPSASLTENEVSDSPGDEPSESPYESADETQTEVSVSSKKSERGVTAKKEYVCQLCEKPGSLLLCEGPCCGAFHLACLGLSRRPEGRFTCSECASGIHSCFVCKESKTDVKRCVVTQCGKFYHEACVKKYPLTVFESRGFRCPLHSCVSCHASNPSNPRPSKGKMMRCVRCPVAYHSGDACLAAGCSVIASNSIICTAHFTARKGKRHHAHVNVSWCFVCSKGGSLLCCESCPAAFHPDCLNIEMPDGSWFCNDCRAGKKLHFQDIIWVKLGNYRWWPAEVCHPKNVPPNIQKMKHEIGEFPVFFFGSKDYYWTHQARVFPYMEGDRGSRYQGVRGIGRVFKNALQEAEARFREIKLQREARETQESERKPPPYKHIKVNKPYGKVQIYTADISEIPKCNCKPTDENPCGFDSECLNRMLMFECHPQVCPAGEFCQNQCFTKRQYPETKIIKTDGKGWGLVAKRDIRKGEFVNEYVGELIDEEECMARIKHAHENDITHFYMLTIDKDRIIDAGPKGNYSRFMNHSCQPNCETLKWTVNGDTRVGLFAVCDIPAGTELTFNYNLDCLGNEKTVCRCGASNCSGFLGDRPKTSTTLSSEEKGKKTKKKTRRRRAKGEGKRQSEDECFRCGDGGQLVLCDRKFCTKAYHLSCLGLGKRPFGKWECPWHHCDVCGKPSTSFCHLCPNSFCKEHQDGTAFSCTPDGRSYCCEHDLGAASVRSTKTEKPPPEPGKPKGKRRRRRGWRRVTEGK
# [9] = viability loss in HeLa cells – cytotoxicity control for MgcRacGAP inhibitor project, dose response (AID 624300); format: functional
# DNA topoisomerase, sequence (A0A2S9PM60 whole entry): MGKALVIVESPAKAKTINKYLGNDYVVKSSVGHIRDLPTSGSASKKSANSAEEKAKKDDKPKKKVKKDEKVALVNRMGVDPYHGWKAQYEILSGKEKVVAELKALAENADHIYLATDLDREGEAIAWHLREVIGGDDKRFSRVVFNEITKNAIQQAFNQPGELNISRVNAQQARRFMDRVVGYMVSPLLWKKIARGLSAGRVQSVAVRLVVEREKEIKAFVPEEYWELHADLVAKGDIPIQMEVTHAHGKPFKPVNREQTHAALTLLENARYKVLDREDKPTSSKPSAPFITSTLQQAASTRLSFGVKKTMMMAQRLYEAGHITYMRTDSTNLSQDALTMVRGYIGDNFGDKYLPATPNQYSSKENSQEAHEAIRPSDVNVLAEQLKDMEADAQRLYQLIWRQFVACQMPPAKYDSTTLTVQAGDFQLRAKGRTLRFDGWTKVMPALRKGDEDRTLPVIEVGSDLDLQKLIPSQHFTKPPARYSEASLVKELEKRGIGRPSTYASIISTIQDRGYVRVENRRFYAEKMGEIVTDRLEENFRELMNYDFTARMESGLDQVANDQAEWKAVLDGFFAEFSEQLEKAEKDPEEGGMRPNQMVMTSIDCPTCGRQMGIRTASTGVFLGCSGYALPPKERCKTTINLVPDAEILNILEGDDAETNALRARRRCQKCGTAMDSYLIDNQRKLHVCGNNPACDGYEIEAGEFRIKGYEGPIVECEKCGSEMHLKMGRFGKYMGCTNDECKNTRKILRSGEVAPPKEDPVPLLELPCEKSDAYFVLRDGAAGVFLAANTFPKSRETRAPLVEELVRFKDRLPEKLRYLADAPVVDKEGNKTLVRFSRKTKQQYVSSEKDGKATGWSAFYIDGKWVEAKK
# Nonstructural protein 1, sequence (Q194T2 whole entry): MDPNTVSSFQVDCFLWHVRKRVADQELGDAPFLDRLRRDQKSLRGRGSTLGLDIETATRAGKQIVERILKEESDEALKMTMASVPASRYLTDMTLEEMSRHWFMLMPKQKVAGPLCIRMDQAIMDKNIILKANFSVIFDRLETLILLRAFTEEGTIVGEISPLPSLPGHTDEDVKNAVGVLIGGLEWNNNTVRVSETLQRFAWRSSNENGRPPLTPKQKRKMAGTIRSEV
Compound,CC50 (MEF),EC50 [1],EC50 [2],EC50 [3],EC50 [4],EC50 [5],IC50 (HEK293),EC50 [6],AC50 (DNA topoisomerase),IC50 [7],IC50 (Nonstructural protein 1),AC50 [8],CC50 [9]
O=C(Nc1ccc(Cl)cc1Cl)NC1CCN(S(=O)(=O)c2ccc(F)cc2)CC1,11.8 µM (active),6.58 µM (active),26.9 µM (inactive),7.09 µM (active),> 99 µM (inactive),7.41 µM (active),4.36 µM (active),> 99 µM (inactive),–,–,–,–,–
COc1cccc2c1C(=N)c1c(O)c3c(c(O)c1C2=O)C[C@@](O)(C(C)=O)C[C@@H]3O[C@H]1C[C@H](N)[C@H](O)[C@H](C)O1,–,–,–,–,–,–,–,–,4.44 µM (active),50.8 µM (active),11.2 µM (active),11.5 µM (active),35.4 µM (active)
